Measurements reported in paper PMC11033320, “Activation of p53 signaling and regression of breast and prostate carcinoma cells by spirooxindole-benzimidazole small molecules” (Frontiers in Pharmacology, 2024).

How the values were obtained:
[1] = tested on: CNS cancer cells (SF-268, SF-295, SF-539, SNB-19, SNB-75, U251); assay: NCI anticancer screening, CNS cancer subpanel; type: cell-based, human
Description: The compound has been processed according to standard method NCI-60 Human Tumor Cell Lines Screen for organic compound at development therapeutic program (DTP). Requests for access to this national resource can be submitted online at: […]

Ki-67 = assay: Immunohistochemical detection of Ki-67 in MDA-MB 231 cells; type: cell-based, human; conditions: MDA-MB 231, 72 h; untreated 82.425%
Protocol: (§1) After trypsinization, the untreated and treated MDA-MB231 cells were centrifuged and washed with PBS buffer and then 10% formalin in PBS was added to cell pellets. The fixed cell specimens were dehydrated in ascending grades of alcohol and immersed in xylene for one hour (three times) followed by impregnation in melted paraffin to from solid paraffin blocks. Then a rotator microtome was used to cut each block into 3-5 μm thick sections that were transferred into positively charge slides. Slides were dried at 60-70°C for 1-2 h then dewaxed by immersion in xylene 3 times and rehydrated in descending grading ethanol. After that slides were incubated in 3% H2O2 for 10 min, washed in PBS buffer twice for 3 min and put in 10 mM citrate buffer […] followed by heating for 10-20 min. After cooling and washing in PBS, slides were separately soaked overnight in primary antibodies (anti-Ki-67 and anti-p53). Slides were washed in PBS, covered with biotinylated goat anti-polyvalent secondary antibody for 10 min and then streptavidin peroxidase was added. After 10 min, substrate of secondary antibody (3,3'-diaminobenzidine) was added followed by washing in PBS and placing in hematoxylin bath for 1-4 min then washing in PBS (1 min) and water (3 min). Percentage of immunostained cells was evaluated by imaging analysis cellSens software of phase contrast microscope (Olympus, Japan).

p53 = assay: Immunohistochemical detection of p53 in MDA-MB 231 cells; type: cell-based, human; conditions: MDA-MB 231, 72 h, compared to untreated cells
Protocol: as §1

[2] = tested on: human p53 transcription factor; assay: p53 transcription factor activity assay in MDA-MB 231 cells; type: cell-based; conditions: treated MDA-MB 231 cells relative to the untreated cells
Protocol: The relative fold activation of p53 in the treated MDA-MB 231 cells were quantified using human p53 transcription factor activity assay kit (RayBio, USA). Briefly, 100 µl of lysates of the untreated and treated MDA-MB 231 cells were added to p53 probe-coated 96 wells and incubated for 2 h (these oligonucleotides capture the active p53 in cell lysate). After washing for discarding unbound p53, primary antibody was added to bound p53-DNA complex, incubated for 1 h. Each well was washed then peroxidase-conjugated secondary antibody was added and incubated for 1 h. After washing and incubating with substrate for 30 min, the absorbance was measured at 450 nm.

cyclin D = assay: Real time PCR cyclin D gene expression in MDA-MB 231 cells; conditions: treated MDA-MB 231 cells compared to untreated cells
p21 = assay: Real time PCR p21 gene expression in MDA-MB 231 cells; conditions: treated MDA-MB 231 cells compared to untreated cells

Row | SMILES | growth inhibition in CNS cancer cells [1] | Ki-67 level (positive immunostaining cells) (Ki-67) | increase of protein level of p53 (p53) | fold activation of p53 transcription factor [2] | expression level of cyclin D (cyclin D) | upregulation of p21 expression (p21)
1 | O=C(c1nc2ccccc2[nH]1)[C@H]1[C@H](c2ccc(Br)cc2)C2CSCN2[C@]12C(=O)Nc1ccccc12 (stereo partly drawn) [Compound 6l, (3S,6′R)-6'-(1H-Benzo [d]imidazole-2-carbonyl)-7'-(4-bromophenyl)-3′,6′,7′,7a′-tetrahydro-1′H-spiro [indoline-3.5′-pyrrolo [1,2-c]thiazol]-2-one] | less than 80% |  |  |  |  | 
2 | O=C(c1nc2ccccc2[nH]1)[C@H]1[C@H](c2ccccc2)C2CSCN2[C@]12C(=O)Nc1ccccc12 (mixture of isomers) [Compound 6a, (3S,6′R)-6'-(1H-benzo [d]imidazole-2-carbonyl)-7′-phenyl-3′,6′,7′,7a′-tetrahydro-1′H-spiro [indoline-3.5′-pyrrolo [1,2-c]thiazol]-2-one] |  | 1.18% | 60.2% | 5.983 ± 0.142 fold | downregulating | 
3 | O=C(c1nc2ccccc2[nH]1)[C@H]1[C@H](c2ccc(Cl)cc2Cl)C2CSCN2[C@]12C(=O)Nc1ccccc12 (stereo partly drawn) [Compound 6g, (3S,6′R)-6'-(1H-Benzo [d]imidazole-2-carbonyl)-7'-(2,4-dichlorophenyl)-3′,6′,7′,7a′-tetrahydro-1′H-spiro [indoline-3.5′-pyrrolo [1,2-c]thiazol]-2-one] | less than 80% |  |  |  |  | 
4 | Cc1ccc([C@@H]2C3CSCN3[C@]3(C(=O)Nc4ccccc43)[C@H]2C(=O)c2nc3ccccc3[nH]2)cc1 (mixture of isomers) [Compound 6d, (3S,6′R)-6'-(1H-Benzo [d]imidazole-2-carbonyl)-7'-(p-tolyl)-3′,6′,7′,7a′-tetrahydro-1′H-spiro [indoline-3.5′-pyrrolo [1,2-c]thiazol]-2-one] |  | 3.03% | 54.7% | 6.287 ± 0.254 fold | downregulating | greater than three times
